Measured values taken from patent US5369111A, “Modulator agent and use thereof” (University of Vermont, priority 1992, dated 1994).

Key:
[1] = tested on: P388 R cells; test: Sensitization of P388 R cells to antitumorous agents; type: cell-based, mouse
Experimental: (§1) The sensitization of C-20'-deoxy C-20'-deethyl vincovaline (D-DEV) has been tested on sensitive and resistants P388 cell lines originating from mouse lympnoma.
(§2) The resistance to anticancerous drug has been induced on DBA2 mouses bearing P388 cells ascites and maintained by treatment with adryamycin.
The P388 R cells are incubated at 37° C. during 24 hours with constant subtoxic concentrations of antitumoral drugs and increasing concentrations of modulators from 1 to 100 μM.

[2] = Clonogenic assay for cytotoxicity, MDR variant KB-V1; type: cell-based, human; details: human, kb-v1 cells; read-out: non-toxic concentration limit
Text: The analogs were examined in a panel of tumor cell lines of both intrinsic and acquired drug resistance, as described in Table 1. The rat colon adenocarcinoma cell lines RCC-2 and RCC-5 (ref. 13) were maintained in Ham's F12 medium supplemented with 5% heat-inactivated, fetal bovine serum (Sterile Systems. Hyclone, Logan, Utah). The two rat colon cancer cell lines differ in their degree of cellular differentiation; whereas the RCC-2 cell line is undifferentiated, the RCC-5 cell line is highly mucinous. The human epidermoid carcinoma cell line KB-3-1 and its MDR variant KB-Vl, selected by VBL treatment (ref. 14; courtesy of M. Gottesman. National Cancer Institute), was maintained in DMEM medium supplemented with 10%, heat-inactivated, fetal bovine serum. The murine sarcoma cell line […] and its MDR strains A3 and A10 selected by ADM treatment (ref. 15; courtesy of T. Tritton, Dept. Pharmacology, Univ. Vermont). were maintained in DMEM medium supplemented with 10% heat-inactivated, horse serum (Hazelton Biolog. Lenexa, Kans.). Stock cultures were subcultured twice weekly upon reaching the late exponential phase of population growth: population doubling times were 18-24 h. Antibiotics were not used in stock or experimental cultures. The MDR cell strains were grown in drug-free media for 48 h prior to experimental use.
(§3) Mid-exponential cultures were used for all assays. The RCC-2 and RCC-5 cell lines were seeded into 24-well plates at 2×10^4 cells/well and allowed to attach to the substratum for 16-18 h prior to treatment. The S180 cell lines were seeded into culture tubes at 1×10^5 cells/ml and treated immediately. Cytotoxicity was determined by quantitation of population growth after 72 h incubation by electronic particle counter (Coulter Electronics, Hialeah, Fla.). The human tumor cell lines were used in a clonogenic assay for cytotoxicity. Cells were seeded at 300 cells/dish, incubated overnight and then treated. Colonies were scored 7-11 days later. In all assays of analog modulation of drug sensitivity, the analog was added minutes prior to the addition of cytotoxic drug.
(§4) FIG. 10 represents the potency of the analog C-20'-deoxy deethyl vincovaline as a modulator of the drug sensitivity of various cell lines: the parental S180 cell line: the two rat colon cancer cell lines, RCC-2 and RCC-5; and the human epidermoid carcinoma cell line KB-3-1 and its MDR cell strain KB-V1, which expresses very high levels of drug resistance (200-500 fold). The enhancement of sensitivity was calculated as the sensitivity index =IC50 of the drug alone divided by the IC50 of the drug+analog. The drugs examined were ADM (o), VBL (Δ), and VCR (.quadrature.). The cytotoxicity of drug and analog treatments in the KB cell lines were measured by cloning efficiencies. The arrows denote the non-toxic concentration limit of the analog in each cell line.

[3] = Viability (MTT test) of P388 R cells; type: cell-based, mouse; details: mouse; resistant cells P388 R, 24 h and 48 h; read-out: concentrations up to which no cytotoxicity is seen
Text: as §1, §2
(§5) This study has been carried out at least in triplicate.

[4] = tested on: S180 cells, parental; test: Modulation of intrinsic drug resistance, parental S180; type: cell-based, murine; details: S180 parental
Summary of the method: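 Parental S180 cells at 1×10^5 cells/ml treated with modulator (10^-6 M up to non-toxic IC10-20 or solubility limit) added minutes before VBL, VCR or ADM; growth counted electronically after 72 h. Sensitivity index = drug IC50 alone / drug IC50 with modulator; duplicates from two experiments.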

[5] = tested on: KB-V1 cells; test: Modulation of acquired resistance, KB-V1; type: cell-based, human; details: at the non-toxic concentration limit of 20 μM
Experimental: as §3
as §4, with “The drugs examined were ADM (o), VBL (Δ), and VCR (.quadrature.).” left out, “The arrows denote the non-toxic concentration limit of the analog in each cell line.” left out

[6] = Viability (MTT test) of P388 S cells; type: cell-based; details: mouse; sensitive cells P388 S, 24 h and 48 h; read-out: concentrations up to which no cytotoxicity is seen
Text: as §1, §2, §5

SMILES: CC[C@]12C=CCN3CC[C@@]4(c5cc([C@]6(C(=O)OC)C[C@H]7CCCN(CCc8c6[nH]c6ccccc86)C7)c(OC)cc5N(C)[C@H]4[C@@](O)(C(=O)OC)[C@@H]1OC(C)=O)[C@@H]32 [analog n° 352, C-20'-deoxy-20'-deethyl-C-14', 16'-epi-VBL]
- percentage of cellular survival ([1]; modulator 30 μM, ADM 1.72 μM, 1440 min): 50%
- modulator effect on P388 R cells with ADM (in words) ([1]; modulator 100 μM, ADM 0.17 μM): no effect
- MNTC [2]: 20 µM
- MNTC [3]: ≥ 100 µM
- maximum degree of sensitization to ADM ([4]; ADM): 5.5 fold
- maximum degree of sensitization to VBL and VCR ([4]; VBL and VCR): 2.3-2.7 fold
- sensitization to VCR only [5]: 6 fold
- MNTC [6]: ≥ 25 µM
